Source: ChEMBL document CHEMBL4371021, “BH3 mimetics derived from Bim-BH3 domain core region show PTP1B inhibitory activity” (Bioorg Med Chem Lett, 2019)
Residues, ends and D or L forms follow the SMILES beside them.

Target: T1, Tyrosine-protein phosphatase non-receptor type 1 (Homo sapiens) (UniProt P18031)
T1 sequence (whole entry): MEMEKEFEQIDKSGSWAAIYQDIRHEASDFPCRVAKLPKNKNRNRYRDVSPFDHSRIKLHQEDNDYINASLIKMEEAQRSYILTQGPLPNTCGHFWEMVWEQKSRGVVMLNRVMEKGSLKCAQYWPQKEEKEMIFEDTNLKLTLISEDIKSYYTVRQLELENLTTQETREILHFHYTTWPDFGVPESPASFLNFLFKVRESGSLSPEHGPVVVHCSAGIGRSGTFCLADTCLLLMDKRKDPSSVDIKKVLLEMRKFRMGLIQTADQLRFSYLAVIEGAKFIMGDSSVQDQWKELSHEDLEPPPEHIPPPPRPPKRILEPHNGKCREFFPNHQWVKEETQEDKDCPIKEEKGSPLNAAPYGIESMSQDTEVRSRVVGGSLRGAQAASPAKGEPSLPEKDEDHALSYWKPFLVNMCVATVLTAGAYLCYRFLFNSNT
Assay: Inhibition of recombinant human N-terminal poly histidine-tagged PTP1B (Glu2 to Asn321 residues) expressed in Escherichia coli at 40 umol/L using pNPP as substrate measured for 4 mins relative to control

Row | inhibition | Compound
1 | 4.25% | CC[C@H](C)[C@H](NC(=O)COCCOCCOCCOCCOC)C(=O)N[C@@H](C)C(=O)N[C@@H](CCC(N)=O)C(=O)N[C@@H](CCC(=O)O)C(=O)N[C@@H](CC(C)C)C(=O)N[C@@H](CCCNC(=N)N)C(=O)N[C@@H](CCCNC(=N)N)C(=O)N[C@H](C(=O)NCC(=O)N[C@@H](CC(=O)O)C(=O)N[C@@H](CCC(=O)O)C(=O)N[C@@H](Cc1ccccc1)C(N)=O)[C@@H](C)CC (HELM PEPTIDE1{[COCCOCCOCCOCCOCC(=O)[*:2]].I.A.Q.E.L.R.R.I.G.D.E.F.[am]}$$$$V2.0)
2 | 2.1% | Ac-IAQELRRIGDEF-NH2
